Data: PMC9153040 (Blood Advances, 2021)

Target: T1, ALAS2 (recombinant erythroid-specific 5-aminolevulinate synthase; hsALAS2 in transgenic MEL cells) (Homo sapiens, UniProt P22557)
T1 sequence (P22557 50-587): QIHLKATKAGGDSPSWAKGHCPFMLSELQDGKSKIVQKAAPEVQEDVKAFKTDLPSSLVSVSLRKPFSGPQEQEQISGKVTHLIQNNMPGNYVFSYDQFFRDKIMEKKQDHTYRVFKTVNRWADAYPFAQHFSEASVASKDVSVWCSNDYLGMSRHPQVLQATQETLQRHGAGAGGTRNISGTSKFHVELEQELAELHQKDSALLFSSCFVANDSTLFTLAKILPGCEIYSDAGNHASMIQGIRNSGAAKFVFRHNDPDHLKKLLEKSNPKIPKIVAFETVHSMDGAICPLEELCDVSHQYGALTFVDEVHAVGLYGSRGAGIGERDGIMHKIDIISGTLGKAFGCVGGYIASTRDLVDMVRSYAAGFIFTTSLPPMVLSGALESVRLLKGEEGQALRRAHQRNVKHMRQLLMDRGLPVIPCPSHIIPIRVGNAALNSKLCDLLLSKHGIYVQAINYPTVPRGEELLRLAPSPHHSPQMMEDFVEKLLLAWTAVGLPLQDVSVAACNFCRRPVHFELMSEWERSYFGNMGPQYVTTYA
Experiment: discontinuous colorimetric assay of ALA
Type: biochemical

C=C(CC(=O)SCCNC(=O)CCNC(=O)[C@H](O)C(C)(C)COP(=O)(O)OP(=O)(O)OC[C@H]1O[C@@H](n2cnc3c(N)ncnc32)[C@H](O)[C@@H]1OP(=O)(O)O)C(=O)O [itaconyl-CoA]
Ki: 100 ± 20 µM
